Literature values in patent US20140275257A1, “N-ACETYL CYSTEINE COMPOSITIONS IN THE TREATMENT OF SYSTEMIC LUPUS ERYTHEMATOSUS” (Foundation for the State University of New York, priority 2013, published 2014).

Tests used:
[1] = tested on: MRL/lpr lupus mouse model; conditions: cited from earlier work
human SLE patients = conditions: patients resistant or intolerant to conventional medications; Fernandez et al. (2006); cited from earlier work
[2] = tested on: CD4+/CD25+/FoxP3+ T cells; conditions: Lai et al. (2010); cited from earlier work
[3] = effects counter to those reported for NAC; Samstrand et al (1999); cited from earlier work

Compound	survival of lupusprone MRL/lpr lupus mouse model ([1]; Warner et al. (1994))	disease activity in murine lupus ([1]; blockade of mTOR)	disease activity in human SLE patients (human SLE patients)	CD4+/CD25+/FoxP3+ T cells in patients with SLE [2]	bioactive at doses less than NAC [3]
CO[C@H]1C[C@@H]2CC[C@@H](C)[C@@](O)(O2)C(=O)C(=O)N2CCCC[C@H]2C(=O)O[C@H]([C@H](C)C[C@@H]2CC[C@@H](O)[C@H](OC)C2)CC(=O)[C@H](C)/C=C(\C)[C@@H](O)[C@@H](OC)C(=O)[C@H](C)C[C@H](C)/C=C/C=C/C=C/1C [rapamycin]	prolonged survival	improves disease activity	improves disease activity	expanded	–
CC(=O)N[C@@H](CSSC[C@H](NC(C)=O)C(=O)O)C(=O)O [oxidized form of NAC]	–	–	–	–	10-100 fold
